Type in all cases: in vivo
One experiment has as its system Kochia (Kochia scoparia). The experiment in a line: Test A preemergence. The conditions noted are these: Bassia scoparia, pre-emergence, 240 h, preemergence, 0 to 100 scale where 0 is no effect and 100 is complete control, read-out: Kochia plant response rating; for pest or weed control at 125 g/ha: 125 g ai/ha, visual injury rating, approximately 10 d; for pest or weed control at 500 g/ha: 500 g ai/ha. The gist of the method: (§1)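 Each rating is a visual injury score from 0 to 100 given about 10 d after treatment, judged against untreated controls kept alongside in the greenhouse. In loam soil–sand blend, seeds got a preemergence directed soil spray, while postemergence plants were 2 to 10 cm tall at spraying.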

The test system of experiment [1] is barnyardgrass (Echinochloa crus-galli). The experiment in a line: Test A preemergence. The conditions noted are these: Echinochloa crus-galli, pre-emergence, 240 h, preemergence, 0 to 100 scale where 0 is no effect and 100 is complete control, read-out: Barnyardgrass plant response rating; for pest or weed control at 125 g/ha: 125 g ai/ha, visual injury rating, approximately 10 d; for pest or weed control at 500 g/ha: 500 g ai/ha. The gist of the method:
as §1

Experiment [2] deals with giant foxtail (Setaria faberii). The experiment in a line: Test A preemergence. The conditions noted are these: Setaria faberi, pre-emergence, 240 h, preemergence, 0 to 100 scale where 0 is no effect and 100 is complete control, read-out: Foxtail, Giant plant response rating; for pest or weed control at 125 g/ha: 125 g ai/ha, visual injury rating, approximately 10 d; for pest or weed control at 500 g/ha: 500 g ai/ha. The gist of the method:
as §1

The test system of experiment [3] is pigweed (Amaranthus retroflexus). The experiment in a line: Test A preemergence. The conditions noted are these: Amaranthus retroflexus, pre-emergence, 240 h, preemergence, 0 to 100 scale where 0 is no effect and 100 is complete control, read-out: Pigweed plant response rating; for pest or weed control at 125 g/ha: 125 g ai/ha, visual injury rating, approximately 10 d; for pest or weed control at 500 g/ha: 500 g ai/ha.

Experiment [4] relates to ragweed (common ragweed, Ambrosia elatior). The experiment in a line: Test A preemergence. The conditions noted are these: Ambrosia artemisiifolia, pre-emergence, 240 h, preemergence, 0 to 100 scale where 0 is no effect and 100 is complete control, read-out: Ragweed plant response rating; for pest or weed control at 125 g/ha: 125 g ai/ha, visual injury rating, approximately 10 d; for pest or weed control at 500 g/ha: 500 g ai/ha. The gist of the method:
as §1

For experiment [5], the system named is ryegrass, Italian (Italian ryegrass, Lolium multiflorum). The experiment in a line: Test A preemergence. The conditions noted are these: Lolium multiflorum, pre-emergence, 240 h, preemergence, 0 to 100 scale where 0 is no effect and 100 is complete control, read-out: Ryegrass, Italian plant response rating; for pest or weed control at 125 g/ha: 125 g ai/ha, visual injury rating, approximately 10 d; for pest or weed control at 500 g/ha: 500 g ai/ha. The gist of the method:
as §1

The subject of experiment [6] is barnyardgrass (Echinochloa crus-galli). The experiment in a line: Test A postemergence. The conditions noted are these: Echinochloa crus-galli, post-emergence, 240 h; for pest or weed control at 125 g/ha: 125 g ai/ha; for pest or weed control at 500 g/ha: 500 g ai/ha. The procedure, abridged: as §1
Experiment [7] concerns giant foxtail (Setaria faberii). Nature of the experiment: Test A postemergence. The conditions noted are these: Setaria faberi, post-emergence, 240 h; for pest or weed control at 125 g/ha: 125 g ai/ha, read-out: Foxtail, Giant plant response rating (0 to 100 scale); for pest or weed control at 500 g/ha: 500 g ai/ha. The gist of the method: as §1
Experiment [8] relates to pigweed (Amaranthus retroflexus). The experiment in a line: Test A postemergence. The conditions noted are these: Amaranthus retroflexus, post-emergence, 240 h; for pest or weed control at 125 g/ha: 125 g ai/ha, read-out: Pigweed plant response rating (0 to 100 scale); for pest or weed control at 500 g/ha: 500 g ai/ha. The procedure, abridged:
as §1

The test system of experiment [9] is ryegrass, Italian (Italian ryegrass, Lolium multiflorum). Nature of the experiment: Test A postemergence. The conditions noted are these: Lolium multiflorum, post-emergence, 240 h; for pest or weed control at 125 g/ha: 125 g ai/ha, read-out: Ryegrass, Italian plant response rating (0 to 100 scale); for pest or weed control at 500 g/ha: 500 g ai/ha. The procedure, abridged: as §1

The test system of experiment [10] is barnyardgrass (Echinochloa crus-galli). Nature of the experiment: Test B flooded paddy test. The conditions noted are these: Echinochloa crus-galli, 250 g ai/ha, Flood; 0 to 100 scale where 0 is no effect and 100 is complete control; read-out: Barnyardgrass plant response rating. The procedure, abridged: (§2)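 Rating scale 0–100 (visual, vs untreated controls) after a 13–15 d greenhouse period; application to the flood layer, 3 cm above soil and maintained; plants at 2-leaf stage when treated.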

Experiment [11] concerns ducksalad (Heteranthera limosa). The experiment in a line: Test B flooded paddy test. The conditions noted are these: Heteranthera limosa, 250 g ai/ha, Flood; 0 to 100 scale where 0 is no effect and 100 is complete control; read-out: Ducksalad plant response rating. The procedure, abridged: as §2
In the next experiment the test system is rice (Oryra sativa). The experiment in a line: Test B flooded paddy test. The conditions noted are these: Oryza sativa, 250 g ai/ha, Flood; 0 to 100 scale where 0 is no effect and 100 is complete control; read-out: Rice plant response rating. The gist of the method: as §2
Experiment [12] concerns sedge, umbrella (small-flower umbrella sedge, Cyperus difformis). Nature of the experiment: Test B flooded paddy test. The conditions noted are these: Cyperus difformis, 250 g ai/ha, Flood; 0 to 100 scale where 0 is no effect and 100 is complete control; read-out: Sedge, Umbrella plant response rating. The gist of the method: as §2
[13] abbreviates: Postemergence, visual injury, 0 to 100 scale (0 no effect, 100 complete control), approx. 10 d, read-out: Plant response rating, Barnyardgrass.
The mark [14] stands for this setting: Postemergence, visual rating about 10 d after treatment.
[15] abbreviates: Postemergence, visual injury, 0 to 100 scale (0 no effect, 100 complete control), approx. 10 d, read-out: Plant response rating, Foxtail, Giant.
[16] abbreviates: Postemergence, visual injury, 0 to 100 scale (0 no effect, 100 complete control), approx. 10 d, read-out: Plant response rating, Pigweed.
Setting [17] is: Postemergence, visual injury, 0 to 100 scale (0 no effect, 100 complete control), approx. 10 d, read-out: Plant response rating, Ryegrass, Italian.
[18] abbreviates: postemergence, visual injury vs untreated controls after approx. 10 d, 0 = no effect, 100 = complete control, read-out: Barnyardgrass plant response rating (0 to 100 scale).
The mark [19] stands for this setting: postemergence, visual injury vs untreated controls after approx. 10 d, 0 = no effect, 100 = complete control.

Take `COc1cc([C@H]2CN(C)C(=O)[C@@H]2C(=O)Nc2cccc(F)c2F)ccc1F` [Compound 1299]: the pest or weed control at 125 g/ha amounted to 70% with Kochia (Kochia scoparia); 90% in [1]; 90% in experiment [2]; 20% in experiment [3]; 30% in experiment [4]; 30% in experiment [5]. In addition, the pest or weed control at 125 g/ha in [6] (Postemergence, visual rating about 10 d after treatment, read-out: Barnyardgrass plant response rating (0 to 100 scale, 0 no effect, 100 complete control)) was found to be 90%; in experiment [7] (setting [14]), 90%; in [8] (setting [14]), 0%; in [9] (setting [14]) it was 20%. Also, the pest or weed control at 500 g/ha with Kochia (Kochia scoparia) was determined as 70%; in experiment [1], 90%; in [2], 90%; in [3] it was 60%; in experiment [4], 70%; in experiment [5] it was 70%. For the same compound, the pest or weed control at 500 g/ha in experiment [6] (setting [13]) stood at 90%; in experiment [7] (setting [15]), 90%; in experiment [8] (setting [16]), 0%; in experiment [9] (setting [17]) it was 60%. Further, the pest or weed control at 250 g/ha in experiment [10] turned out to be 65%; in [11], 85%; in the experiment on rice (Oryra sativa), 20%; in [12], 40%.
For `Cc1ccc([C@H]2CNC(=O)[C@@H]2C(=O)Nc2c(F)cccc2F)cc1C` [Compound 1247], the pest or weed control at 125 g/ha in the experiment with Kochia (Kochia scoparia) was 0%; in [1] it was 70%; in experiment [2], 20%; in [3], 0%; in experiment [4] it was 0%; in experiment [5] it was 0%. For the same compound, the pest or weed control at 125 g/ha stood at 40% in [6] (setting [18]), 0% in [7] (setting [19]), 0% in experiment [8] (setting [19]) and 0% in experiment [9] (setting [19]). For the same compound, the pest or weed control at 500 g/ha in the experiment with Kochia (Kochia scoparia) is 30%; in [1], 90%; in experiment [2] it was 80%; in [3], 0%; in [4], 0%; in experiment [5], 20%. In addition, the pest or weed control at 500 g/ha worked out at 70% in experiment [6] (setting [13]), 30% in [7] (setting [15]), 0% in experiment [8] (setting [16]) and 0% in experiment [9] (setting [17]). Moreover, the pest or weed control at 250 g/ha in [10] worked out at 20%; in experiment [11], 55%; with rice (Oryra sativa), 0%; in experiment [12], 0%.
`COc1cc(C(F)(F)F)ccc1[C@H]1CN(C)C(=O)[C@@H]1C(=O)Nc1cccc(F)c1C` [Compound 1205]: the pest or weed control at 125 g/ha in the experiment with Kochia (Kochia scoparia) amounted to 30%; in experiment [1] it was 90%; in experiment [2], 100%; in experiment [3], 0%; in experiment [4], 0%; in experiment [5] it was 40%. The pest or weed control at 125 g/ha in experiment [6] (setting [18]) stood at 40%; in [7] (setting [19]) it was 80%; in experiment [8] (setting [19]), 0%; in experiment [9] (setting [19]) it was 0%. The pest or weed control at 500 g/ha with Kochia (Kochia scoparia) worked out at 30%; in experiment [1], 90%; in experiment [2] it was 100%; in experiment [3] it was 30%; in experiment [4], 0%; in experiment [5], 70%. Also, the pest or weed control at 500 g/ha in [6] (postemergence, 0 to 100 scale, 0 is no effect, 100 is complete control, read-out: Barnyardgrass plant response rating) was 50%; in experiment [7] (postemergence, 0 to 100 scale, 0 is no effect, 100 is complete control, read-out: Foxtail, Giant plant response rating) it was 80%; in experiment [8] (postemergence, 0 to 100 scale, 0 is no effect, 100 is complete control, read-out: Pigweed plant response rating), 0%; in [9] (postemergence, 0 to 100 scale, 0 is no effect, 100 is complete control, read-out: Ryegrass, Italian plant response rating) it was 30%. Moreover, the pest or weed control at 250 g/ha in [10] worked out at 40%; in experiment [11] it was 100%; in the experiment with rice (Oryra sativa) it was 20%; in [12], 0%.

For the origin of these results see patent US12077503B2, “Substituted cyclic amides and their use as herbicides” (FMC CORPORATION, priority 2015, dated 2024).
